Measurements reported in paper PMC8014892, “Permeation Studies across Symmetric and Asymmetric Membranes in Microdroplet Arrays” (Analytical Chemistry, 2021).
“Also recorded” adds a separate entry of the source. Like-named read-outs stand apart in the source and are kept apart here. One block for each compound: values may come before it.

Columns and labels:
[1] = design: method as in PMID 19560324; conditions: calcein permeation across liposome membranes; cited from earlier work
[2] = Permeation across symmetric 100% DOPC DIBs in droplet pairs, fluorescence microscopy; type: in vitro ADME; conditions: for Permeation across the DIB (observation in words): pH 6.0, 100% DOPC DIBs, calcein observed for 2900 minutes; for Permeation across the DIB (observation in words) / Papp at 50 µM: 37 °C; for Papp at 50 µM: not told, droplet pairs, N = 27; for Papp at 50 µM / kad / kda: acceptor 100% DOPC
Experimental: The lipid-out approach was used to add phospholipids to the water/oil interface, i.e., lipids were dissolved in the oil phase. We purchased 1,2-dioleoyl-sn-glycero-3-phosphocholine (DOPC) and 1,2-dioleoyl-sn-glycero-3-phospho-L-serine (DOPS) as solutions in chloroform from Avanti Polar Lipids (Alabaster, AL, U.S.A.). We placed the required lipids in pear-shaped flasks and removed the chloroform with a rotary evaporator (Büchi Labortechnik AG, Flawil, Switzerland) forming a film. The lipid film was dissolved in a 1:1 (v/v) mix of hexadecane (reagent plus grade, Sigma–Aldrich) and squalane (Sigma–Aldrich) in an ultrasonication bath at 50 °C for ∼30 min. The final phospholipid concentration in oil was 0.625 mM for donor droplets and 1.25 mM for acceptor droplets.
We used either 100% DOPC or 30% DOPC and 70% DOPS mixtures (mole percentage). We filtrated the phospholipid-oil solution before use (0.45 μm pore size, RC 4 Male Luer Slip Minisart filters, Huberlab, Switzerland).
All aqueous solutions were prepared in LC–MS grade water (Fisher Scientific, Loughborough, U.K.). We used as buffers 20 mM 2-morpholinoethanesulfonic acid (MES, pH 6.0, Alfa Aesar), 20 mM phosphate buffer (pH 7.0, Acros Organics), 50 mM 4-(2-hydroxyethyl)-1-piperazineethanesulfonic acid (HEPES, pH 7.4, gibco, Paisley, U.K.), or 20 mM tris(hydroxymethyl)aminomethane (Tris, pH 8.0, VWR). […] PEG4-NBD was synthesized from succinimidyl 6-(N-(7-nitrobenz-2-oxa-1,3-diazol-4-yl)amino)hexanoate (NBD NHS-ester, Molecular Probes Life Technologies, Eugene, OR, U.S.A.) and amine-terminated poly(ethylene glycol)-4 alcohol (Amino-PEG4-OH, Quanta Biodesign, Plain City, OH, U.S.A.).[26] A 1:1 molar ratio of the NBD NHS-ester and Amino-PEG4-OH was reacted in a 10:1 (v/v) solution of chloroform (Sigma–Aldrich) and triethylamine (Brenntag Schweizerhall, Basel, Switzerland). The reaction was held at 45 °C for 2 h, followed by 22 °C for 12 h. Afterward, the reaction products were separated with a preparative liquid chromatography system (Prep 150 LC system, Waters). The mass of the product PEG4-NBD was confirmed with an LC–MS system (Ultimate 3000 MSQ, Dionex).
We placed the microarray plate in a removable temperature-controlled holder (T = 37 °C) with a transparent bottom, which was mounted on a motorized XY stage (HLD117, Prior) of an inverted fluorescence microscope (Olympus IX73). We carried out the experiments in an oil bath to reduce droplet evaporation. The plate holder was filled with ∼4 mL of 1:1 (v/v) hexadecane:squalane without phospholipids and 50 μL of water in all four edges to reduce droplet shrinkage. We used a self-made microfluidic T-junction device made of polycarbonate (PC) to generate droplets of ∼25 nL by continuously injecting the aqueous phase (flow rate: 0.5 μL/min) into the immiscible oil phase (flow rate: 2 μL/min). The droplets were transported through a capillary onto the microarray plate. In this time, the phospholipids in the oil aligned along the water/oil interface and formed a monolayer.[27],[28] We mounted the end of the capillary on a motorized Z stage (M-403.2PD, Physik Instrumente, Karlsruhe, Germany). The generated droplets were detected in the capillary holder with a custom-made optical droplet detection system.[22] This was utilized to selectively deposit a single droplet per predefined position by synchronizing droplet generation and capillary and microarray movements. All components of the microscope and the capillary were controlled by the software YouScope for automated microscopy (R2018, v2.1.0).[29]
Fluorescence and bright-field pictures were recorded using a light source (Lumen 300, Prior and TH4-200, Olympus) and a complementary metal oxide semiconductor (CMOS) camera (Zyla 4.2, Andor) connected to the Olympus IX73 microscope. To track fluorescein, calcein, and PEG4-NBD, a blue excitation filter set (exciter HQ470/40x, dichroic 500dcxr BS, and emitter E515lpv2; Chroma Technology Corp, Bellows Falls, VT, U.S.A.) was used. […]

[3] = Permeation across symmetric and asymmetric DIBs containing 30% DOPC 70% DOPS, droplet pairs, fluorescence microscopy; type: in vitro ADME; conditions: not told
Experimental: We placed the microarray plate in a removable temperature-controlled holder (T = 37 °C) with a transparent bottom, which was mounted on a motorized XY stage (HLD117, Prior) of an inverted fluorescence microscope (Olympus IX73). We carried out the experiments in an oil bath to reduce droplet evaporation. […] The generated droplets were detected in the capillary holder with a custom-made optical droplet detection system.[22] […]
Fluorescence and bright-field pictures were recorded using a light source (Lumen 300, Prior and TH4-200, Olympus) and a complementary metal oxide semiconductor (CMOS) camera (Zyla 4.2, Andor) connected to the Olympus IX73 microscope. […]
The recorded fluorescence signals were evaluated using Fiji[30] and OriginPro (2019, 9.6, OriginLab Corporation). First, we subtracted the background fluorescence for data evaluation. In a next step, we normalized the fluorescence to compensate for potential leakage into the oil phase, membrane partitioning, shrinkage of droplets, or fluorescence bleaching. For the normalization, the sum of fluorescence of all droplets in the first image was set to 100%. […]

[4] = Label-free permeation analysis of droplet pairs by LC-MS; type: in vitro ADME; conditions: not told, pH 6, pH 6.0, LC-MS, N = 4
Experimental: For subsequent LC–MS analysis, we used a recently developed protocol to split the droplet pairs.[24] The capillary used before for spotting of droplets was flushed with hexadecane/squalane (1:1) and placed between two connecting droplets to separate the droplet pairs. To extract individual droplets, the capillary was flushed with fluorinated oil (HFE-7500, 3 M Novec, Hadfield, U.K.) and connected to a 50 μL glass syringe (Hamilton, Switzerland). The center of the capillary was lowered to a height where it slightly squeezed the droplet. Subsequently, by slowly pulling the glass syringe, the droplet was aspirated. Afterward, the capillary was moved over a small tube (TreffLab Degersheim, Switzerland), and the aspirated droplet was ejected. […]
The sample was analyzed in a 1260 II Infinity LC Quaternary system coupled to a single quadrupole atmospheric pressure ionization-electrospray (API-ES) G6130B mass spectrometer (Agilent). […] All analytes were detected with selected ion monitoring (SIM) in a positive mode. […]
Equations 1 and 2 were fitted to the data with OriginPro. […] Data from every droplet pair were individually fitted and evaluated. […] We further approximated that the area of the droplet interface bilayer is circular,[32] and we calculated the area (A) for the individual droplet pairs via the measured droplet interface bilayer diameter from the bright-field images (as indicated in Table S1). […]

[5] = Permeation over multiple compartments (one donor, four acceptor droplets in series); type: in vitro ADME; conditions: for Papp at 50 µM: not told
Experimental: For several acceptor droplets in series, the numerical solutions of a differential equation system according to eqs 5 to 7 were fitted to the normalized fluorescence data of donor and acceptor droplets. The solutions of the differential equation system and the fitting were performed with the Matlab (version 2018a, Mathworks) functions ode15s, fmincon (minimizing the sum of squared residues), and MultiStart. [drawing 5] 5 [drawing 6] 6 [drawing 7] 7
W(n) is the fluorescence in the water phase of droplet n, k is the mass transfer rate constant (the fit parameter), and N is the total number of donor and acceptor droplets. The expression N > 2 equals 1 if N > 2 and 0 if N ≤ 2, and n < N equals 1 if n < N and 0 if n ≥ N.
Our platform allows for spotting droplet lines, instead of just pairs. With this, we can monitor how permeation and diffusion of compounds progress over several compartments. For creation of multiple droplets, connected via DIBs, we used a modified glass plate, where cavities were created in lines. Several fluorophore-free acceptor droplets were deposited in this line accordingly. The last droplet contained fluorescein, which permeates over the multiple compartments. […] Permeation at pH 7.4 was slower, which was expected from the experiments with the droplet pairs and from the ionization state of fluorescein (Supporting Information, Figure S11). The Papp,fit at pH 7.4 was (19.01 ± 1.16) × 10^–6 cm/s, higher than determined with the droplet pairs at pH 7.0 (7.05 ± 0.42) × 10^–6 cm/s. […] The lag phase observed at pH 7.0 (Supporting Information Figure S5) has a higher impact on the fit parameters in the assay with only two droplets (reducing the apparent rate constants) than with several droplets in series.

[6] = cited from earlier work

Permeation across the DIB (observation in words) [2]: no permeation was observed
Structure (SMILES): O=C(O)CN(CC(=O)O)Cc1cc2c(cc1O)Oc1cc(O)c(CN(CC(=O)O)CC(=O)O)cc1C21OC(=O)c2ccccc21 [calcein]
permeability coefficients [1]: 10^–10 to 10^–11 cm/s
Permeation across the DIB (observation in words) ([2]; listed as Calcein): did not permeate; also recorded: No permeation observed

Structure (SMILES): CC/N=c1\cc2oc3cc(NCC)c(C)cc3c(-c3ccccc3C(=O)OCC)c-2cc1C [rhodamine 6G]
Papp at 50 µM ([3]; pH 6, pH 6, donor 30% DOPC 70% DOPS, acceptor 30% DOPC 70% DOPS (symmetric)): 12.1 ×10⁻⁶ cm/s
Papp at 50 µM ([3]; pH 6, pH 6, donor 30% DOPC 70% DOPS, acceptor 100% DOPC (asymmetric)): 19.6 ×10⁻⁶ cm/s
Papp at 50 µM ([3]; pH 6, pH 6, donor 100% DOPC, acceptor 30% DOPC 70% DOPS (asymmetric)): 6.56 ×10⁻⁶ cm/s
Papp at 50 µM ([4]; eq 3, fit of all data, read-out: Papp.fit (MS)): 6.28 ± 0.68 ×10⁻⁶ cm/s
Papp at 50 µM ([4]; eq 4, sink condition, first two data points, read-out: Papp.sink (MS)): 9.42 ± 2.17 ×10⁻⁶ cm/s
Papp at 50 µM ([2]; pH 6, donor 100% DOPC): 10.4 ×10⁻⁶ cm/s
kad ([2]; pH 6, donor 100% DOPC): 166.8 × 10-6 (1/s)
kda ([2]; pH 6, donor 100% DOPC): 166.8 × 10-6 (1/s)

Papp at 50 µM ([5]; pH 6, one donor to four acceptor droplets, 100% DOPC, eqs 5–7 and 3, N = 12 droplet networks): 200 ± 9.73 ×10⁻⁶ cm/s
Papp at 50 µM ([5]; pH 7.4, one donor to four acceptor droplets, eqs 5–7 and 3): 19 ± 1.16 ×10⁻⁶ cm/s
Papp at 50 µM ([2]; pH 6, donor 100% DOPC): 193 ± 17.8 ×10⁻⁶ cm/s
Papp at 50 µM ([2]; pH 7, donor 100% DOPC): 7.05 ± 0.42 ×10⁻⁶ cm/s
Papp at 50 µM ([2]; pH 8, donor 100% DOPC): 1.05 ± 0.06 ×10⁻⁶ cm/s
Permeation across the DIB (observation in words) [2]: permeated across the DIB
Structure (SMILES): O=C1OC2(c3ccc(O)cc3Oc3cc(O)ccc32)c2ccccc21 [fluorescein]
Time until equilibrium was reached in all five droplets ([5]; pH 6, five droplets in series): approximately 30 min
kad ([2]; pH 6, donor 100% DOPC): 4046.0 × 10-6 (1/s)
kda ([2]; pH 6, donor 100% DOPC): 4046.0 × 10-6 (1/s)
kad ([2]; pH 7, donor 100% DOPC): 145.0 × 10-6 (1/s)
kda ([2]; pH 7, donor 100% DOPC): 145.0 × 10-6 (1/s)
kad ([2]; pH 8, donor 100% DOPC): 20.3 × 10-6 (1/s)
kda ([2]; pH 8, donor 100% DOPC): 20.3 × 10-6 (1/s)
permeation constant ([6]; pH 6.4, Nisisako et al.): 60.0 ± 22.4 × 10^–6 cm/s
permeation constant ([6]; pH 7.4, Schlicht and Zagnoni): 2.01 ± 1.46 × 10^–6 cm/s
permeation constant ([6]; pH 7.5, Nisisako et al.): 5.1 ± 1.8 × 10^–6 cm/s
